Source: ChEMBL document CHEMBL1759836, “Microwave assisted one-pot synthesis of highly potent novel isoniazid analogues” (Bioorg Med Chem Lett, 2011)
Values after ≈ are worked out from the molar mass of the structure shown.

What was measured:
[1] = tested on: Mycobacterium tuberculosis; assay: Antimicrobial activity against Mycobacterium tuberculosis H37Rv by agar dilution method; type: functional
[2] = Cytotoxicity against african green monkey Vero cells after 72 hrs by MTT assay; type: cell-based; conditions: chlorocebus sabaeus
[3] = tested on: Mycobacterium tuberculosis; assay: Antimicrobial activity against multidrug-resisntat Mycobacterium tuberculosis by agar dilution method; type: functional
[4] = Selectivity index, ratio of CC50 for african green monkey Vero cells to MIC for Mycobacterium tuberculosis H37Rv; type: functional

Row | SMILES | MIC [1] [µM] | CC50 at 72 h [2] [µM] | MIC [3] [µM] | Selectivity Index [4]
1 | NNC(=O)c1ccncc1 [ISONIAZID] | 0.73 (≈ 0.1 µg/mL) | > 456 | 45.6 (≈ 6.25 µg/mL) | 
2 | CC1(C)CC(=O)C2=C(C1)N(NC(=O)c1ccncc1)C1=C(C(=O)CC(C)(C)C1)C2c1ccccc1[N+](=O)[O-] | 0.19 (≈ 0.0978 µg/mL) | < 121 | 1.51 (≈ 0.777 µg/mL) | 
3 | COc1ccc(C2C3=C(CC(C)(C)CC3=O)N(NC(=O)c3ccncc3)C3=C2C(=O)CC(C)(C)C3)cc1 | 12.5 (≈ 6.25 µg/mL) |  |  | 
4 | CC1(C)CC(=O)C2=C(C1)N(NC(=O)c1ccncc1)C1=C(C(=O)CC(C)(C)C1)C2c1cccc(OCc2ccccc2)c1 | 0.17 (≈ 0.0979 µg/mL) | > 109 | 1.35 (≈ 0.777 µg/mL) | 
5 | CC1(C)CC(=O)C2=C(C1)N(NC(=O)c1ccncc1)C1=C(C(=O)CC(C)(C)C1)C2c1ccc(OCc2ccccc2)cc1 | 0.17 (≈ 0.0979 µg/mL) | > 109 | 0.69 (≈ 0.397 µg/mL) | 
6 | COc1ccc(C2C3=C(CC(C)(C)CC3=O)N(NC(=O)c3ccncc3)C3=C2C(=O)CC(C)(C)C3)c(OC)c1OC | 11.2 (≈ 6.25 µg/mL) |  |  | 
7 | COc1ccccc1C1C2=C(CC(C)(C)CC2=O)N(NC(=O)c2ccncc2)C2=C1C(=O)CC(C)(C)C2 | 12.5 (≈ 6.25 µg/mL) |  |  | 
8 | CC1(C)CC(=O)C2=C(C1)N(NC(=O)c1ccncc1)C1=C(C(=O)CC(C)(C)C1)C2c1ccccc1C(F)(F)F | 0.36 (≈ 0.194 µg/mL) | > 116 | 1.45 (≈ 0.779 µg/mL) | 
9 | CC1(C)CC(=O)C2=C(C1)N(NC(=O)c1ccncc1)C1=C(C(=O)CC(C)(C)C1)C2c1ccc(Br)cc1 | 0.73 (≈ 0.4 µg/mL) | < 114 | 2.84 (≈ 1.56 µg/mL) | 
10 | CC1(C)CC(=O)C2=C(C1)N(NC(=O)c1ccncc1)C1=C(C(=O)CC(C)(C)C1)C2c1cccc(F)c1 | 0.41 (≈ 0.2 µg/mL) | > 128 | 0.82 (≈ 0.4 µg/mL) | 
11 | Cc1cccc(C2C3=C(CC(C)(C)CC3=O)N(NC(=O)c3ccncc3)C3=C2C(=O)CC(C)(C)C3)c1 | 6.44 (≈ 3.11 µg/mL) |  |  | 
12 | CC1(C)CC(=O)C2=C(C1)N(NC(=O)c1ccncc1)C1=C(C(=O)CC(C)(C)C1)C2c1ccc(F)cc1 | 0.2 (≈ 0.0975 µg/mL) | > 128 | 0.2 (≈ 0.0975 µg/mL) | 
13 | CC1(C)CC(=O)C2=C(C1)N(NC(=O)c1ccncc1)C1=C(C(=O)CC(C)(C)C1)C2c1cccc(C(F)(F)F)c1 | 0.18 (≈ 0.0968 µg/mL) | > 116 | 1.45 (≈ 0.779 µg/mL) | >645
14 | CC(C)c1ccc(C2C3=C(CC(C)(C)CC3=O)N(NC(=O)c3ccncc3)C3=C2C(=O)CC(C)(C)C3)cc1 | 1.52 (≈ 0.778 µg/mL) |  |  | 
15 | CC1(C)CC(=O)C2=C(C1)N(NC(=O)c1ccncc1)C1=C(C(=O)CC(C)(C)C1)C2c1ccccc1O | > 12.9 |  |  | 
16 | CC1(C)CC(=O)C2=C(C1)N(NC(=O)c1ccncc1)C1=C(C(=O)CC(C)(C)C1)C2c1ccc(Cl)cc1 | 0.79 (≈ 0.398 µg/mL) | > 124 | 1.54 (≈ 0.776 µg/mL) | 
17 | CC1(C)CC(=O)C2=C(C1)N(NC(=O)c1ccncc1)C1=C(C(=O)CC(C)(C)C1)C2c1ccccc1OCc1ccccc1 | < 0.17 | > 109 | 0.69 (≈ 0.397 µg/mL) | 
18 | CC1(C)CC(=O)C2=C(C1)N(NC(=O)c1ccncc1)C1=C(C(=O)CC(C)(C)C1)C2c1cccc([N+](=O)[O-])c1 | 0.77 (≈ 0.396 µg/mL) | < 121 | 3.03 (≈ 1.56 µg/mL) | 
19 | CC1(C)CC(=O)C2=C(C1)N(NC(=O)c1ccncc1)C1=C(C(=O)CC(C)(C)C1)C2c1ccccc1Br | 0.18 (≈ 0.0987 µg/mL) | > 114 | 2.84 (≈ 1.56 µg/mL) | 
20 | CN(C)c1ccc(C2C3=C(CC(C)(C)CC3=O)N(NC(=O)c3ccncc3)C3=C2C(=O)CC(C)(C)C3)cc1 | 6.1 (≈ 3.13 µg/mL) |  |  | 
21 | CC1(C)CC(=O)C2=C(C1)N(NC(=O)c1ccncc1)C1=C(C(=O)CC(C)(C)C1)C2c1ccccc1 | 6.66 (≈ 3.13 µg/mL) |  |  | 
22 | Cc1ccc(C2C3=C(CC(C)(C)CC3=O)N(NC(=O)c3ccncc3)C3=C2C(=O)CC(C)(C)C3)cc1 | 6.44 (≈ 3.11 µg/mL) |  |  | 
23 | CC1(C)CC(=O)C2=C(C1)N(NC(=O)c1ccncc1)C1=C(C(=O)CC(C)(C)C1)C2c1ccc([N+](=O)[O-])cc1 | 0.77 (≈ 0.396 µg/mL) | < 121 | 3.03 (≈ 1.56 µg/mL) | 
24 | COc1cc(C2C3=C(CC(C)(C)CC3=O)N(NC(=O)c3ccncc3)C3=C2C(=O)CC(C)(C)C3)ccc1O | 3.02 (≈ 1.56 µg/mL) |  |  | 
25 | CC1(C)CC(=O)C2=C(C1)N(NC(=O)c1ccncc1)C1=C(C(=O)CC(C)(C)C1)C2c1cccc(Br)c1 | 0.73 (≈ 0.4 µg/mL) | < 114 | 2.84 (≈ 1.56 µg/mL) | 
26 | CC1(C)CC(=O)C2=C(C1)N(NC(=O)c1ccncc1)C1=C(C(=O)CC(C)(C)C1)C2c1ccccc1F | 0.41 (≈ 0.2 µg/mL) | > 128 | 1.59 (≈ 0.775 µg/mL) | 
27 | CC1(C)CC(=O)C2=C(C1)N(NC(=O)c1ccncc1)C1=C(C(=O)CC(C)(C)C1)C2c1ccc(O)cc1 | 12.9 (≈ 6.25 µg/mL) |  |  | 
28 | CC1(C)CC(=O)C2=C(C1)N(NC(=O)c1ccncc1)C1=C(C(=O)CC(C)(C)C1)C2c1cccc(O)c1 | > 12.9 |  |  | 
29 | Cc1ccccc1C1C2=C(CC(C)(C)CC2=O)N(NC(=O)c2ccncc2)C2=C1C(=O)CC(C)(C)C2 | 3.22 (≈ 1.56 µg/mL) |  |  | 
30 | CC1(C)CC(=O)C2=C(C1)N(NC(=O)c1ccncc1)C1=C(C(=O)CC(C)(C)C1)C2c1ccc(C(F)(F)F)cc1 | 0.36 (≈ 0.194 µg/mL) | > 116 | 0.74 (≈ 0.398 µg/mL) | 
